The source of these data is US10544102B2, “Benzazepine dicarboxamide compounds with secondary amide function” (Hoffmann-La Roche Inc., priority 2017, dated 2020).

The structures appear in SMILES notation.

Experiment [1] has as its target T1, human TLR7 (Homo sapiens, UniProt Q9NYK1).
T1 construct: host or cells: HEK-Blue human TLR7 cells (HEK293-derived reporter line)
T1 sequence (Q9NYK1 27-1049): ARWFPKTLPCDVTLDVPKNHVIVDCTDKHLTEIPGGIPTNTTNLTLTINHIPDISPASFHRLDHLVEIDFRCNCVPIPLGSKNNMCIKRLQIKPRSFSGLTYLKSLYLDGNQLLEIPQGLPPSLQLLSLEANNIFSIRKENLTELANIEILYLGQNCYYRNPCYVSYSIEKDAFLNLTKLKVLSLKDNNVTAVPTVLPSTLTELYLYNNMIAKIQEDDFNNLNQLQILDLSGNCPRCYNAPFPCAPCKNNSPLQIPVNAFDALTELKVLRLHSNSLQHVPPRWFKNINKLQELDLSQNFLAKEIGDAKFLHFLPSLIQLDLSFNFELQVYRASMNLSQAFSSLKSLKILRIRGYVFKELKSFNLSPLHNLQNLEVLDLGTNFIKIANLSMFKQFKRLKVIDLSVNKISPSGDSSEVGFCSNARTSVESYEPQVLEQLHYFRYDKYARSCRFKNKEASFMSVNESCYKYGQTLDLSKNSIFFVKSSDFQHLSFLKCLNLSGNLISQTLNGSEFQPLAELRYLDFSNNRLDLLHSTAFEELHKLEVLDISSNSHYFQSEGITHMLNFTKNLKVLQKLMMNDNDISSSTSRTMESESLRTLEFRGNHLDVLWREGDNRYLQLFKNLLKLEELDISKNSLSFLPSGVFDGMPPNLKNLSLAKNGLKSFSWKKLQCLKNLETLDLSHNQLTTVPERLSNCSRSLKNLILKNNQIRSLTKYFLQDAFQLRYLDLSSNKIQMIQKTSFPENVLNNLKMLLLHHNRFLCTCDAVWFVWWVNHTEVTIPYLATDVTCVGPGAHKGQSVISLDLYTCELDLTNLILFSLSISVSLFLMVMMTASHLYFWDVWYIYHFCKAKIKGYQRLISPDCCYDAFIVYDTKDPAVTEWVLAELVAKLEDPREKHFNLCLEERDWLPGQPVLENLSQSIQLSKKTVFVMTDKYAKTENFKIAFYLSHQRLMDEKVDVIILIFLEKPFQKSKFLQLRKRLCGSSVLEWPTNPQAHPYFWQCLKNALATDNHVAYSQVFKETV
Briefly: HEK-Blue human TLR7 cells NF-κB SEAP reporter assay. Particulars: stimulation for 20 hours, Quanti Blue 640 nm. The experiment is classed as cell-based. From the text:
(§1) For TLR8 and TLR7 activity testing, HEK-Blue human TLR8 or TLR7 cells (Invivogen, San Diego, Calif., USA) are used, respectively. These cells are designed for studying the stimulation of human TLR8 or TLR7 by monitoring the activation of NF-κB. A SEAP (secreted embryonic alkaline phosphatase) reporter gene is placed under the control of the IFN-b minimal promoter fused to five NF-κB and AP-1-binding sites. Therefore the reporter expression is regulated by the NF-κB promoter upon stimulation of human TLR8 or TLR7 for 20 hours. The cell culture supernatant SEAP reporter activity was determined using Quanti Blue kit (Invivogen, San Diego, Calif., USA) at a wavelength of 640 nm, a detection medium that turns purple/blue in the presence of alkaline phosphatase. EC50 values were determined using Activity Base analysis (ID Business Solution, Limited).
(Reporter assays use an easily measured gene product as a stand-in for the process of interest.)

Experiment [2] deals with T2, human TLR8 (Homo sapiens, UniProt Q9NR97).
T2 construct: host or cells: HEK-Blue human TLR8 cells (HEK293-derived reporter line)
T2 sequence (Q9NR97 27-1041): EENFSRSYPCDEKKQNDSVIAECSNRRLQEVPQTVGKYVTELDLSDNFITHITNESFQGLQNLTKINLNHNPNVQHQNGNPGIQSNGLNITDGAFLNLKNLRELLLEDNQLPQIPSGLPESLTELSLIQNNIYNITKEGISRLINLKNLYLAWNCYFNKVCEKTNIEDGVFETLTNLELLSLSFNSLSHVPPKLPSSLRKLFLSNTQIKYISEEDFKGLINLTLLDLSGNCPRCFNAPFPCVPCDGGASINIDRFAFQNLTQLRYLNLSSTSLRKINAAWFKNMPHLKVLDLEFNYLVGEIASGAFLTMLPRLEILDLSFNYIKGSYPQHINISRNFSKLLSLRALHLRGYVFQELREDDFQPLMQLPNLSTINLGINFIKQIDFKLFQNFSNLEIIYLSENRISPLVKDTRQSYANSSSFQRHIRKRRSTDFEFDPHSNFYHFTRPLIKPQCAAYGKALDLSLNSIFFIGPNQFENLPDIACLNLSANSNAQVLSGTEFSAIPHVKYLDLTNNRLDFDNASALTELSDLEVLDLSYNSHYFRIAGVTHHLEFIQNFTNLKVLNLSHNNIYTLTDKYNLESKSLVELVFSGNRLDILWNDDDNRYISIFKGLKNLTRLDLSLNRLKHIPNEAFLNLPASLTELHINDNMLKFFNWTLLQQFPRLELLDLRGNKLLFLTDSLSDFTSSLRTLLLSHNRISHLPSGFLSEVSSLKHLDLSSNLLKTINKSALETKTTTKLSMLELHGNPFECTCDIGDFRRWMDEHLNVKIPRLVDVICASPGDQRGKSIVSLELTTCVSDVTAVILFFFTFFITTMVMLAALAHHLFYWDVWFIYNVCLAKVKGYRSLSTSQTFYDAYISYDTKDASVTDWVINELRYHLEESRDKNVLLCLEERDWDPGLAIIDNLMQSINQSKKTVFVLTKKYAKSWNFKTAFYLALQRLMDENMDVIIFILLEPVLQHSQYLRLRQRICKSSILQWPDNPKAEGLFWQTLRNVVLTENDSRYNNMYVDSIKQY
The experiment in a line: HEK-Blue human TLR8 cells NF-κB SEAP reporter assay. The experiment is classed as cell-based. Particulars: stimulation for 20 hours, Quanti Blue 640 nm.
Text: as §1

On to `CCCN(CCC)C(=O)C1=Cc2ccc(C(=O)N[C@H]3C[C@@H]3c3ccccc3)cc2N=C(N)C1` [Example 1, 2-Amino-N8-[(1S,2R)-2-phenylcyclopropyl]-N4,N4-dipropyl-3H-1-benzazepine-4,8-dicarboxamide], for which the EC50 in experiment [1] was 7900 nM; in experiment [2], 2 nM.
For `CCCN(CCC)C(=O)C1=Cc2ccc(C(=O)NC3CCN(c4ccccc4)CC3)cc2N=C(N)C1` [Example 2, 2-Amino-N8-(1-phenyl-4-piperidyl)-N4,N4-dipropyl-3H-1-benzazepine-4,8-dicarboxamide], the concentration for a half-maximal effect (EC50) in experiment [1] was determined as 10000 nM; in experiment [2], 2 nM.
For `CCCN(CCC)C(=O)C1=Cc2ccc(C(=O)NC3CN(c4ccccc4)C3)cc2N=C(N)C1` [Example 3, 2-Amino-N8-(1-phenylazetidin-3-yl)-N4,N4-dipropyl-3H-1-benzazepine-4,8-dicarboxamide], in that order: over 100000 nM and 4 nM.
For `CCCN(CCC)C(=O)C1=Cc2ccc(C(=O)NC3CCCCC3)cc2N=C(N)C1` [Example 4, 2-Amino-N8-cyclohexyl-N4,N4-dipropyl-3H-1-benzazepine-4,8-dicarboxamide], in that order: 34000 nM and 4 nM.
In the case of `CCCN(CCC)C(=O)C1=Cc2ccc(C(=O)NC3(c4ccccc4)CC3)cc2N=C(N)C1` [Example 5, 2-Amino-N8-(1-phenylcyclopropyl)-N4,N4-dipropyl-3H-1-benzazepine-4,8-dicarboxamide], the figures for the EC50 in experiment [1] and in experiment [2] were over 100000 nM and 6 nM, respectively.
For `CCCN(CCC)C(=O)C1=Cc2ccc(C(=O)NC3(c4ccccc4)CCC3)cc2N=C(N)C1` [Example 6, 2-Amino-N8-(1-phenylcyclobutyl)-N4,N4-dipropyl-3H-1-benzazepine-4,8-dicarboxamide], in that order: 13000 nM and 7 nM.
As to `CCCN(CCC)C(=O)C1=Cc2ccc(C(=O)N[C@@H](C)c3ccccc3)cc2N=C(N)C1` [Example 7, 2-Amino-N8-[(1S)-1-phenylethyl]-N4,N4-dipropyl-3H-1-benzazepine-4,8-dicarboxamide], the EC50 in experiment [1] turned out to be 17000 nM; in experiment [2] it was 10 nM.
For the compound `CCCN(CCC)C(=O)C1=Cc2ccc(C(=O)NCc3ccon3)cc2N=C(N)C1` [Example 8, 2-Amino-N8-(isoxazol-3-ylmethyl)-N4,N4-dipropyl-3H-1-benzazepine-4,8-dicarboxamide], the EC50 in experiment [1] is 40000 nM; in experiment [2], 12 nM.
`CCCN(CCC)C(=O)C1=Cc2ccc(C(=O)NCc3cncs3)cc2N=C(N)C1` [Example 9, 2-Amino-N4,N4-dipropyl-N8-(thiazol-5-ylmethyl)-3H-1-benzazepine-4,8-dicarboxamide]: the EC50 turned out to be 52000 nM in experiment [1] and 24 nM in experiment [2].
On to `CCCN(CCC)C(=O)C1=Cc2ccc(C(=O)NC(c3ccccc3)c3ccccc3)cc2N=C(N)C1` [Example 10, 2-Amino-N8-benzhydryl-N4,N4-dipropyl-3H-1-benzazepine-4,8-dicarboxamide], for which the EC50 is over 100000 nM in experiment [1] and 11 nM in experiment [2].
For `CCCN(CCC)C(=O)C1=Cc2ccc(C(=O)NC3(c4ccccc4)CCOCC3)cc2N=C(N)C1` [Example 11, 2-Amino-N8-(4-phenyltetrahydropyran-4-yl)-N4,N4-dipropyl-3H-1-benzazepine-4,8-dicarboxamide] the same measures were over 100000 nM and 29 nM.
Regarding `CCCN(CCC)C(=O)C1=Cc2ccc(C(=O)NCc3nccs3)cc2N=C(N)C1` [Example 12, 2-Amino-N4,N4-dipropyl-N8-(thiazol-2-ylmethyl)-3H-1-benzazepine-4,8-dicarboxamide], the figures for the EC50 in experiment [1] and in experiment [2] were 42000 nM and 13 nM, respectively.
Take `CCCN(CCC)C(=O)C1=Cc2ccc(C(=O)NC(C)(C)c3ccccc3)cc2N=C(N)C1` [Example 13, 2-Amino-N8-(1-methyl-1-phenyl-ethyl)-N4,N4-dipropyl-3H-1-benzazepine-4,8-dicarboxamide]: the EC50 is 14000 nM in experiment [1] and 11 nM in experiment [2].

One may read the EC50 as the concentration at which the effect is half-maximal.
